This note sets out measurements from patent publication US20250236614A1, “BICYCLIC TETRAHYDROAZEPINE DERIVATIVES” (Hoffmann-La Roche Inc., priority 2022, published 2025).

Like-named read-outs stand apart in the source and are kept apart here.

Test [1] relates to primary human T-cells. As to the kind of experiment: IL2 secretion measurements in CD3-stimulated T-cells. It counts as cell-based. As to conditions: isomer A; for EC50: CD3 antibody-stimulated T-cells, IL2 in supernatant after 24 hours, read-out: Tcell IL2 CD3 EC50; for Emax: read-out: Emax IL2 (% activation). On the procedure:
As readouts for T-cell activation, IL2 secretion after 24 hours and proliferation after 5 days was measured. Increases in IL2 secretion and proliferation upon compound treatment were assessed as the % of the maximum of reference compound A1. WO 2016/139181 discloses reference compound A1 as example 70. As a counter screen and to make sure that no unwanted TCR-independent activation was triggered, PBS conditions were run for all compounds.
Expanded primary human T-cells were thawed and cultured in RPMI 1640 (Gibco, #61870-010)+5% human serum (HS, Sigma, #H3667)+1 mM Sodium Pyruvate (Gibco, #11360-039)+50 μM 2-mercaptoethanol (Gibco, #31350-010) and lx Pen-Strep (Life Technologies, #15140122) medium at density of 2 Mio/ml for 3 hours in 5% CO2, 37° C. and 95% humidity. For coating of plates, […] or PBS++ with CD3 antibody (concentration depending on donor and determined by CD3 titrations) was added 100 μl/well to Poly-D Lysine coated 96-well plates. Plates were sealed and incubated at room temperature for 3 hours on a table-top rocking platform. After incubation, plates were washed once with PBS−− and filled with 40 μl/well culture medium only. Compounds were then added (see next section) to medium only plates. After 3 hours of culturing the T-cells, cells were filtered through a cell strainer (Miltenyi Biotech, #130-041-407), counted again and concentration was adjusted to 1.25 Mio/ml.
Cells were then seeded 80 μl/well to the 40 μl/well including dispensed compounds according to plate layout. By adding cells, compounds were further diluted 1:3, and resulting in 100k cells/120 μl/well. After 24 hours 40 μl of supernatant was collected carefully from the top while not disturbing the cells and transferred into a round bottom 96 well plate. Collected and frozen supernatant was used for detection of IL2 using the IL-2 Human ProQuantum Immunoassay Kit (Invitrogen) or using the Human IL-2 ELISA Kit (Thermo Fisher).
Compounds were added in a 5 or 6 pt dose response with the Tecan D300e Digital Dispenser, all conditions 3 times more concentrated than the end-concentration, since cells are added afterwards (80 μl cells to 40 μl prepared medium with treatment). The DR was starting at 20 μM or 10 μM final top concentration and a dilution factor of 3.333. The positive control was the reference compound A1 that was added in a dose response as well, additionally to 3 wells of only 20 μM representing the positive stimulator control. All wells were normalized with DMSO to a final concentration of 0.6% (0.2% end-concentration).
The immunoassay is done following the manufacturer's manual (Invitrogen, #A35603).
Additional information: For the immunoassay, MicroAmp™ EnduraPlate™ Optical 384-Well plates are used. Frozen supernatant is thawed and centrifuged for 5 minutes at 1000×g, both steps at 4° C. After centrifugation, required sample amount is taken from the top, and in a separate LightCycler V-bottom plate (working plate) diluted with assay dilution buffer, dilution factor depending on the PBS or CD3 condition but at least 1:3. IL-2 standard and blanks are prepared in the same V-bottom plate, standard with a range of […] (extended version). After preparation, […] of sample dilutions or standard/blanks are transferred to the optical 384-well plate (assay plate) and the 10 μl reaction protocol is being followed. For measurement, the QuantStudio 12K Flex system is used. Raw data is extracted and IL-2 concentrations are calculated with the Thermo Fisher online app (apps.thermofisher.com/apps/proquantum).
ELISA is done following the manufacturer's manual (Thermo Fisher Scientific, #88-7025-88).
Additional information: For the ELISA Nunc MaxiSorp 96 well plates are used. Frozen supernatant is thawed and centrifuged for 5 minutes at 1000×g, both steps at 4° C. After that, required sample amount is taken from the top, and in a separate V-bottom plate diluted with ELISA diluent, dilution factor depending on the PBS or CD3 condition. […]

The target of test [2] is T1, hDGKalpha(1-735)-N-His (DGKA) (Homo sapiens, UniProt P23743).
T1 construct: hDGKalpha(1-735)-N-His; His (N)
T1 sequence (P23743 whole entry): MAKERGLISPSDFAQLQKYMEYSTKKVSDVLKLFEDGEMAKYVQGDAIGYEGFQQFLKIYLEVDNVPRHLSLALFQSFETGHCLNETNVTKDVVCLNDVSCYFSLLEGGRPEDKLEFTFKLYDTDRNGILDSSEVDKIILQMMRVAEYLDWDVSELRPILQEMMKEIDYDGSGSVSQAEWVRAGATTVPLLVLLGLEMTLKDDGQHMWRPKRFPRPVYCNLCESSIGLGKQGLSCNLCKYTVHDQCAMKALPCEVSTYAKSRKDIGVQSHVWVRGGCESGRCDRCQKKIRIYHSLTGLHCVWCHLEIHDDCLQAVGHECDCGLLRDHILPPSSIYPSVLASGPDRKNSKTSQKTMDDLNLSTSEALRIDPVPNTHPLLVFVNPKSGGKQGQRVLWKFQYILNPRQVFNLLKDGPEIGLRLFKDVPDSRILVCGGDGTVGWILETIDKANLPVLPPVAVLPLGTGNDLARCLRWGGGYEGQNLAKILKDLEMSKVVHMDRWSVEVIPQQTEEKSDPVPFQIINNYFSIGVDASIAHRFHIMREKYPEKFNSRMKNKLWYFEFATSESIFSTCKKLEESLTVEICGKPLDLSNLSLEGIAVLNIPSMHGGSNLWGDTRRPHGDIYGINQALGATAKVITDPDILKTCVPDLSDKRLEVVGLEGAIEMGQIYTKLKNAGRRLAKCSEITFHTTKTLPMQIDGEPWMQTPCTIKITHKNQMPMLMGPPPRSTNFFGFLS
Kind of test: In vitro DGK inhibition assay (ADP-Glo, in house), DGK alpha. It counts as biochemical. As to conditions: isomer A; 4 nM DGK α, 25 μM ATP, 125 μM DLG in liposomes, 1 hour reaction; read-out: DGKalpha ADP Glo assay IC50. The procedure, abridged: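 Sf21-expressed full-length His-tagged enzymes (DGKA 4 nM, DGKZ 2 nM) phosphorylated 125 μM DLG in PS/PC liposomes with ATP at 25 μM (DGKA) or 50 μM (DGKZ). After 1 h, ADP was measured by ADP-Glo luminescence. Compounds: 11-point 1:3 dilutions from 10 mM top concentration.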
A general note: In ADP-Glo the light output rises with the ADP produced.

[3] abbreviates: Homo sapiens, T-cell, CD3 condition, 24 hours, 20 μM reference compound A1 = 100%, DMSO neutral control.

For `COC(=O)N1CC2CC(c3nnc(-c4cc5c(cc4F)C(F)(F)CC(N)C(=O)N5Cc4ccc(-c5noc(C(F)(F)F)n5)cc4)o3)(C2)C1` (single isomer, unassigned) [Example 42], in test [1] (Homo sapiens, T-cell), the EC50 amounted to 2890 nM. Also, in test [1] (setting [3]), the Emax was 129%. The concentration for half-maximal inhibition (IC50) in test [2] stood at 4320 nM.

Turning to `CC(C)(C)c1nnc(-c2cc3c(cc2F)C(F)(F)CC(N)C(=O)N3Cc2ccc(OC(F)(F)F)cc2)o1` (stereo not drawn) [Example 1, 3-amino-8-(5-tert-butyl-1,3,4-oxadiazol-2-yl)-5,5,7-trifluoro-1-[[4-(trifluoromethoxy)phenyl]methyl]-3,4-dihydro-1-benzazepin-2-one], the EC50 in test [1] (Homo sapiens, T-cell) is 1050 nM. Also, the maximum response (Emax) in test [1] (setting [3]) was 96%. In test [2], the IC50 was 33900 nM.

For the molecule “(3S)-3-amino-5,5,7-trifluoro-8-(5-morpholino-1,3,4-oxadiazol-2-yl)-1-[[4-(trifluoromethoxy)phenyl]methyl]-3,4-dihydro-1-benzazepin-2-one and (3R)-3-amino-5,5,7-trifluoro-8-(5-morpholino-1,3,4-oxadiazol-2-yl)-1-[[4-(trifluoromethoxy)phenyl]methyl]-3,4-dihydro-1-benzazepin-2-one [Example 3]”, the concentration giving a half-maximal response (EC50) in test [1] is over 10000 nM. For the same molecule, in test [1] (CD3 condition, 24 hours, 20 μM reference compound A1 = 100%, DMSO neutral control), the “Emax IL2 (% activation)” value was found to be 37 % activation. Moreover, the half-inhibitory concentration (IC50) in test [2] was 1570 nM.

Usually EC50 stands for the concentration needed to bring the measured effect to its halfway point. For orientation: Emax means the greatest response seen or fitted, relative to the assay's reference. What is called IC50 is the midpoint of a concentration-inhibition curve.
